Experimental data reported in US7232835B2, “3,6-Disubstituted azabicyclo derivatives as muscarinic receptor antagonists” (Ranbaxy Laboratories Limited, priority 2002, dated 2007).
pKi: −log10 of the molar value. Read-outs that look alike come from different tables or passages of the source.

How the values were obtained:
isolated rat bladder = assay: tissue or blood; format: cell-based; settings: rat bladder strips, antagonism of carbachol contraction
M3 muscarinic receptor = molecular target: T1, M3 muscarinic receptor (Rattus norvegicus, UniProt P08483); assay: [3H]-N-methylscopolamine radioligand binding assay, rat submandibular gland membranes; design: Receptor Binding Assay Selectivity: reference not given here
T1 construct: Submandibular glands and heart were isolated and placed in ice cold homogenising buffer; from tissue; host or cells: rat submandibular gland membrane homogenate

M2 muscarinic receptor = molecular target: T2, M2 muscarinic receptor (Rattus norvegicus, UniProt P10980); assay: [3H]-N-methylscopolamine radioligand binding assay, rat heart membranes
T2 construct: Submandibular glands and heart were isolated and placed in ice cold homogenising buffer; from tissue; host or cells: rat heart membrane homogenate
T2 sequence (P10980 1-466): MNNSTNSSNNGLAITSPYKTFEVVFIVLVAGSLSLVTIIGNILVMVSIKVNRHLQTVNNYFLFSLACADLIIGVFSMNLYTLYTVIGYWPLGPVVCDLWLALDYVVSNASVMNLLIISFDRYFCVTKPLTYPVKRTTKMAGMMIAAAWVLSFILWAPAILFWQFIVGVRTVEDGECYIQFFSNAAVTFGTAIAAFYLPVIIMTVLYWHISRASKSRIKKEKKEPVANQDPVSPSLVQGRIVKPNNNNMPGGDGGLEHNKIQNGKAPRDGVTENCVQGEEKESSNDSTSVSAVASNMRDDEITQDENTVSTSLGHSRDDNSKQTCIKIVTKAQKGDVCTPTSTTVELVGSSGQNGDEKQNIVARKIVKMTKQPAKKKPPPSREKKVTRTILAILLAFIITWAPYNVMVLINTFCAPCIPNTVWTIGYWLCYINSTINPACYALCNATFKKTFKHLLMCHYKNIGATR

[1] = Table III, read-out: Rat Bladder pKB (converted)
[2] = Table III, rat submandibular gland, [3H]NMS, read-out: M3 Ki (nm)
[3] = Table III, rat heart, [3H]NMS, read-out: M2 Ki (nm)
[4] = Table II, read-out: Functional Assay KB
[5] = Table II, rat submandibular gland, [3H]NMS, read-out: Receptor Binding Assay Ki (nM) M 3
[6] = Table II, rat heart, [3H]NMS, read-out: Receptor Binding Assay Ki (nM) M2
[7] = Table III, rat submandibular gland, [3H]NMS, read-out: M3 Pki (converted)
[8] = Table III, rat heart, [3H]NMS, read-out: M2 pKi (converted)
[9] = Receptor Binding Assay Ki (nM) M 3

T1 sequence (P08483 whole entry): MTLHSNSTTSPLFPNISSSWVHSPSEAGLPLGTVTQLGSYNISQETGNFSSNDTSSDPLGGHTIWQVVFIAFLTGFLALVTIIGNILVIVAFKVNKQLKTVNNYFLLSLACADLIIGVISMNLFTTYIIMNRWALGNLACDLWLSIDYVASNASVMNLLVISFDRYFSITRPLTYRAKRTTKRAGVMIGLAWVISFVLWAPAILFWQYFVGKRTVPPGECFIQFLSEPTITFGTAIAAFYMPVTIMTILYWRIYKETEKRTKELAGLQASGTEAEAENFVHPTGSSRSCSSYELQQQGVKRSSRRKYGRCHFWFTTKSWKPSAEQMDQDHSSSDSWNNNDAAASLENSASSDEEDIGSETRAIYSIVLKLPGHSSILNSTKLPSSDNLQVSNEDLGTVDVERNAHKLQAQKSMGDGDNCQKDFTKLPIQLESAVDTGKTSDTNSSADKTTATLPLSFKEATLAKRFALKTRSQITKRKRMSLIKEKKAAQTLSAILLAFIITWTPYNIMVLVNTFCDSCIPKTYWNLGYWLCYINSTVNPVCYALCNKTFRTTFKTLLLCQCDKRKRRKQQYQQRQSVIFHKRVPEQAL

Compound	Kb (isolated rat bladder; [1])	pKi (M3 muscarinic receptor; [2])	pKi (M2 muscarinic receptor; [3])	Kb (isolated rat bladder; [4])	Ki (M2 muscarinic receptor; [6])	Ki (M3 muscarinic receptor; [7])	also measured
O=C(N[C@H]1[C@@H]2CN(C3CC3)C[C@@H]21)C(O)(c1ccccc1)C1CCCCC1 (stereo partly drawn) [Compound No. 38, (1α,5α,6α)-6-N-(3-azabicyclo[3.1.0]hexyl-3-cyclopropyl)-2-cyclohexyl-2-hydroxy-2-phenyl acetamide]	288 nM	5.81	< 6.00	–	–	–	–
CC(C)=CCCN1C[C@@H]2[C@H](C1)[C@H]2NC(=O)C(O)(c1ccccc1)C1CCCCC1 (stereo partly drawn) [Compound No. 41, (1α,5α,6α)-6-N-(3-azabicyclo[3.1.0]hexyl-3-(4-methyl-3-pentenyl))-2-cyclohexyl-2-hydroxy-2-phenyl acetamide]	20.4 nM	7.33	5.53	32.4 nM	2940 nM	–	Ki (M3 muscarinic receptor; [5]): 47 nM; Receptor Binding Assay Selectivity (M3 muscarinic receptor; Table II, ratio M2 Ki / M3 Ki): 62.64
O=C(N[C@H]1[C@@H]2CN(Cc3ccc4c(c3)OCO4)C[C@@H]21)C(O)(c1ccccc1)C1CCCCC1 (stereo partly drawn) [Compound No. 42, (1α,5α,6α)-6-N-(3-azabicyclo[3.1.0]hexyl-3-(3,4-methylenedioxybenzyl))-2-cyclohexyl-2-hydroxy-2-phenyl acetamide]	75.9 nM	7.26	5.66	–	–	56.2 nM	–
Cc1ccc(S(=O)(=O)NC(=O)N2C[C@@H]3[C@H](C2)[C@H]3NC(=O)C(O)(c2ccccc2)C2CCCCC2)cc1 (stereo partly drawn) [Compound No. 49, (1α,5α,6α)-6-N-(3-azabicyclo[3.1.0]hexyl-3-(4-methylphenyl-1-sulphonamide)urea)-2-cyclohexyl-2-hydroxy-2-phenyl acetamide]	631 nM	6.00	< 6.00	–	–	–	–
Cc1ccc(C(O)(C(=O)NC2C3CN(Cc4ccccc4)CC32)C2CCCCC2)cc1 (stereo not drawn) [Compound No. 50, (1α,5α,6α)-6-N-(3-azabicyclo[3.1.0]hexyl-3-benzyl)-2-cyclohexyl-2-hydroxy-2-(4-methylphenyl)acetamide]	138 nM	5.92	< 6.00	–	–	–	–
O=C(N[C@H]1[C@@H]2CN(Cc3ccccc3)C[C@@H]21)C(O)(c1ccc(Oc2ccccc2)cc1)C1CCCCC1 (stereo partly drawn) [Compound No. 52, (1α,5α,6α)-6-N-(3-azabicyclo[3.1.0]hexyl-3-benzyl)-2-cyclohexyl-2-hydroxy-2-(4-phenoxyphenyl)acetamide]	3090 nM	6.43	< 6.00	–	–	–	–
COc1ccc(C(O)(C(=O)NC2C3CN(CCC=C(C)C)CC32)C2CCCCC2)cc1 (stereo not drawn) [Compound No. 57, (1α,5α,6α)-6-N-(3-azabicyclo[3.1.0]hexyl-3-(4-methyl-3-pentenyl))-2-cyclohexyl-2-hydroxy-2-(4-methoxyphenyl)acetamide]	1860 nM	6.62	< 6.00	–	–	–	–
O=C(N[C@H]1[C@@H]2CN(Cc3ccccc3)C[C@@H]21)C(O)(c1ccccc1)C1CCCC1 (stereo partly shown) [Compound No. 64]	27.5 nM	–	5.52	–	–	–	pKi (M3 muscarinic receptor): 7.17; Ki (M2 muscarinic receptor; [8]): 2510 nM
CC(C)=CCCN1CC2C(C1)C2NC(=O)C(O)(c1ccccc1)C1CCCC1 (stereo not drawn) [Compound No. 65, (1α,5α,6α)-6-N-(3-azabicyclo[3.1.0]hexyl-3-(4-methyl-3-pentenyl))-2-cyclopentyl-2-hydroxy-2-phenyl acetamide]	3.98 nM	7.48	5.86	4 nM	1370 nM	29.5 nM	Ki (M3 muscarinic receptor; [5]): 33 nM; Receptor Binding Assay Selectivity (M3 muscarinic receptor; Table II, ratio M2 Ki / M3 Ki): 41.52; Ki (M2 muscarinic receptor; [8]): 1350 nM
O=C(NC1C2CN(CCc3ccc4c(c3)OCO4)CC21)C(O)(c1ccccc1)C1CCCC1 (stereo not shown) [Compound No. 66]	3.24 nM	–	6.74	5 nM	237 nM	–	Receptor Binding Assay Selectivity (M3 muscarinic receptor): 12.88; pKi (M3 muscarinic receptor; M3 Ki (nm)): 7.73; pKi (M3 muscarinic receptor; M3 Pki): 7.81; Ki (M3 muscarinic receptor; [9]): 18.4 nM; Ki (M2 muscarinic receptor; [8]): 115 nM
O=C(NC1C2CN(CCc3ccccc3)CC21)C(O)(c1ccccc1)C1CCCC1 (stereo not drawn) [Compound No. 67, (1α,5α,6α)-6-N-(3-azabicyclo[3.1.0]hexyl-3-(2-phenylethyl))-2-cyclopentyl-2-hydroxy-2-phenyl acetamide]	38 nM	–	5.85	–	–	38.9 nM	–
O=C(NC1C2CN(Cc3ccccc3)CC21)C(O)(c1ccccc1)C1CCCCCC1 (stereo not drawn) [Compound No. 72, (1α,5α,6α)-6-N-(3-azabicyclo[3.1.0]hexyl-3-benzyl)-2-cycloheptyl-2-hydroxy-2-phenyl acetamide]	66.1 nM	–	–	–	–	20.9 nM	pKi (M2 muscarinic receptor; M2 Ki (nm)): 5.82
CC(C)=CCCN1C[C@@H]2[C@H](C1)[C@H]2NC(=O)[C@](O)(c1ccccc1)C1CCCC1 [Compound No. 81, (2R)-(1α,5α,6α)-6-N-(3-azabicyclo[3.1.0]hexyl-3-(4-methyl-3-pentenyl))-2-cyclopentyl-2-hydroxy-2-phenyl acetamide]	11.2 nM	7.91	6.25	7.95 nM	564 nM	11.5 nM	Ki (M3 muscarinic receptor; [5]): 12.4 nM; Receptor Binding Assay Selectivity (M3 muscarinic receptor; Table II, ratio M2 Ki / M3 Ki): 45.48; Ki (M2 muscarinic receptor; [8]): 525 nM
O=C(N[C@H]1[C@@H]2CN(CCc3ccc4c(c3)OCO4)C[C@@H]21)[C@](O)(c1ccccc1)C1CCCC1 [Compound No. 82, (2R)-(1α,5α,6α)-6-N-(3-azabicyclo[3.1.0]hexyl-3-(3,4-methylenedioxyphenyl)ethyl)-2-cyclopentyl-2-hydroxy-2-phenyl acetamide]	0.759 nM	–	6.19	9.12 nM	646 nM	–	Receptor Binding Assay Selectivity (M3 muscarinic receptor): 5; pKi (M3 muscarinic receptor; M3 Ki (nm)): 7.93; Ki (M3 muscarinic receptor; [9]): 11.7 nM
